# Laboratory results taken from US20030176314A1, “Compounds for the treatment of pain” (priority 2001, published 2003).
# Assays:
# [1] = molecular target: T1, human α2C adrenergic receptor (Homo sapiens, UniProt P18825); experiment: Binding at human α2C adrenergic receptor; details: Table 8; read-out: hα2C Ki
# T1 construct: host or cells: LM(tk-) cells, line L-α2C
# T1 sequence (P18825 1-462): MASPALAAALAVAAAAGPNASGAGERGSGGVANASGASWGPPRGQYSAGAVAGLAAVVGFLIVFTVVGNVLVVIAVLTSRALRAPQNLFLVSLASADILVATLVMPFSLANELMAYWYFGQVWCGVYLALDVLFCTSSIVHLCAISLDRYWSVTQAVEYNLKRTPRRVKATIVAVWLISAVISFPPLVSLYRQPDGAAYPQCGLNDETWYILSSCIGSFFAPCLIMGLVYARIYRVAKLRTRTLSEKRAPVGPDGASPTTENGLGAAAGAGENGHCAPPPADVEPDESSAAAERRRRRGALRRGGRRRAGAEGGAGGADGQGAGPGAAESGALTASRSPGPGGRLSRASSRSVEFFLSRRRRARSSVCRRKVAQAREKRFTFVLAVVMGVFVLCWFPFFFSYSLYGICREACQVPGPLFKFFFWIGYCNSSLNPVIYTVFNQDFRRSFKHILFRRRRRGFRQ
# Source text: (§1) α2 Human Adrenergic Receptors: To determine the binding of compounds to human α2 receptors, LM(tk−) cell lines stably transfected with the genes encoding the α2A, α2B, and α2C receptors were used. The cell line expressing the α2A receptor is designated L-α2A, and was deposited on Nov. 6, 1992, under ATCC Accession No. CRL 11180. The cell line expressing the α2B receptor is designated L-NGC-α2B, and was deposited on Oct. 25, 1989, under ATCC Accession No. CRL 10275. The cell line expressing the α2C receptor is designated L-α2C, and was deposited on Nov. 6, 1992, under ATCC Accession No. CRL-11181. Cell lysates were prepared as described herin, and suspended in 25 mM glycyiglycine buffer (pH 7.6 at room temperature). Equilibrium competition binding assay were performed using […] (0.5 nM), and nonspecific binding was determined by incubation with 10 μM phentolamine. The bound radioligand was separated by filtration through GF/B filters using a cell harvester.
# (§2) The binding affinity (Ki) of these compounds were tested according to the protocols described herein at the following receptors; human α1A, α1B, α1D, α2A, α2B, and α2C adrenergic receptors; human Y1, Y2, Y4, and Y5 receptors; and N-Methyl-D-aspartic acid (NMDA) receptor channels. The binding interactions of these compounds were additionally tested at the norepinephrine (NE) transporter (NE uptake) and serotonin (5-hydroxytryptamine (5HT)) transporter (5HT uptake) according to protocols described herein
# [2] = molecular target: T2, human α2A adrenergic receptor (Homo sapiens, UniProt P08913); experiment: Binding at human α2A adrenergic receptor; details: Table 8; read-out: hα2A Ki
# T2 construct: host or cells: LM(tk-) cells, line L-α2A
# T2 sequence (P08913 1-465): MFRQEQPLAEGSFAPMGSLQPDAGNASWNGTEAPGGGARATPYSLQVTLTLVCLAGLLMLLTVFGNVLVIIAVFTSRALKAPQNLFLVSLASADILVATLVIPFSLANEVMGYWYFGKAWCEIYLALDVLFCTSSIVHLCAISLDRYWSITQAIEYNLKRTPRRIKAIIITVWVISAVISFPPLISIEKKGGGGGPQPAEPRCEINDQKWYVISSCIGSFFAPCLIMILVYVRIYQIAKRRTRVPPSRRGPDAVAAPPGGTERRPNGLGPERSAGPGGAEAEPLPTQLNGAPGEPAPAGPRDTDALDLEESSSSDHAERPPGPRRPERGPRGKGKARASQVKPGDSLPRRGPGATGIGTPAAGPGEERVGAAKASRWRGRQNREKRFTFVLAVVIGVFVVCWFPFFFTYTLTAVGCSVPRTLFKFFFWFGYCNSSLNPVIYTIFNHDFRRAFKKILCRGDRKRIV
# Source text: as §1, §2
# [3] = system: distension induced contractions of the rat bladder; experiment: Distension-induced rhythmic contraction (DIRC) model, micturition reflex in anesthetized rats; format: in vivo
# Source text: This model is widely considered to be predictive for the actions of drugs to treat human urge incontinence (also refered to as detrusor instability or unstable bladder). Examples of drugs that are active in this model which also are used therapeutically in humans include oxybutynin and baclofen (Morikawa et al, 1992); imipramine and nortriptyline (Pietra et al, 1990); and nifedipine and terodiline (Guarneri et al, 1993).
# Female Sprague Dawley rats weighing approximately 300 g were anesthetized with subcutaneous urethane (1.2 g/kg). The trachea was cannulated with PE240 tubing to provide a clear airway throughout the experiment. A midline abdominal incision was made and the left and right ureters were isolated. The ureters were ligated distally (to prevent escape of fluids from the bladder) and cannulated proximally with PE10 tubing. The incision was closed using 4-0 silk sutures, leaving the PE10 lines routed to the exterior for the elimination of urine. The bladder was canulated via the transurethral route using PE50 tubing inserted 2.5 cm beyond the urethral opening. This cannula was secured to the tail using tape and connected to a pressure transducer. To prevent leakage from the bladder, the cannula was tied tightly to the exterior urethral opening using 4-0 silk.
# To initiate the micturition reflex, the bladder was first emptied by applying pressure to the lower abdomen, and then filled with normal saline in 100 μl increments (maximum=2 ml) until spontaneous bladder contractions occurred (typically 20-40 mmHg at a rate of one contraction every 2 to 3 minutes. Once a regular rhythm was established, vehicle (saline) or test compounds were administered i.v. to examine their effects on bladder activity. The effect of a compound which inhibited the micturition reflex was expressed as its “disappearance time”, defined as the time between successive bladder contractions in the presence of the test compound minus the time between contractions before compound administration.
smiles,measurement,setting,value
"Cc1cc(NC(=N)N)nc2ccc(Cl)cc12 [Compound 4005A, N-(6-chloro-4-methyl-2-quinolinyl)guanidine]",Ki,[1],765 nM
same,Ki,[2],199 nM
same,inhibition of distention-induced contractions of the rat bladder,"[3]; 1 mg/kg, i.v.",complete inhibition
same,time for which inhibition of bladder activity persisted,"[3]; i.v. administration, anesthetized rat (figure legends)",35 min
